Km data for two molecules are collected here from PMC10253665, “Enhancing the Catalytic Activity of Thermo-Asparaginase from Thermococcus sibiricus by a Double Mesophilic-like Mutation in the Substrate-Binding Region” (International Journal of Molecular Sciences, 2023).

Data set [1] has as its target T1, TsA (L-asparaginase from Thermococcus sibiricus) (Thermococcus sibiricus, UniProt C6A532).
T1 construct: gene TSIB_1676
The data set can be described thus: direct Nesslerization (ammonia release). The data set is classed as biochemical. Particulars: 90 °C, Tris-HCl 0.05 M pH 9.0 (b36 says same conditions as mutant).

Substrate in data set [2]: NC(=O)C[C@H](N)C(=O)O
In words: direct Nesslerization (ammonia release). Particulars: 90 °C, glycine-NaOH 0.01 M pH 9.3, printed substrate range 20-250 μM. The data set is classed as biochemical, Thermococcus sibiricus.

T1 sequence (C6A532 entry or part of it): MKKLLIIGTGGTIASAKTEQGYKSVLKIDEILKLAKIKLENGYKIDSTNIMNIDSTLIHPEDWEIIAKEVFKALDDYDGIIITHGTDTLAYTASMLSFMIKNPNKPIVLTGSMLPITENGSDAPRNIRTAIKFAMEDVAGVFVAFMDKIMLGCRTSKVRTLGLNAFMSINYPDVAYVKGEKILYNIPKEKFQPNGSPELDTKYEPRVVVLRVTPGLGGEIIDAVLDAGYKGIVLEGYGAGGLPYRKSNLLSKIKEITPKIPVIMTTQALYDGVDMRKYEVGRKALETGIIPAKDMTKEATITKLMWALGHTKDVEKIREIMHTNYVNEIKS

Regarding `NC(=O)C[C@H](N)C(=O)O` [L-asparagine], the Km in data set [1] is 3000 µM.

B1: TsA (L-asparaginase from Thermococcus sibiricus) (Thermococcus sibiricus MM 739; D54G/T56Q) (protein)
chain: MKKLLIIGTGGTIASAKTEQGYKSVLKIDEILKLAKIKLENGYKIDSTNIMNIGSQLIHPEDWEIIAKEVFKALDDYDGIIITHGTDTLAYTASMLSFMIKNPNKPIVLTGSMLPITENGSDAPRNIRTAIKFAMEDVAGVFVAFMDKIMLGCRTSKVRTLGLNAFMSINYPDVAYVKGEKILYNIPKEKFQPNGSPELDTKYEPRVVVLRVTPGLGGEIIDAVLDAGYKGIVLEGYGAGGLPYRKSNLLSKIKEITPKIPVIMTTQALYDGVDMRKYEVGRKALETGIIPAKDMTKEATITKLMWALGHTKDVEKIREIMHTNYVNEIKS
On to B1, for which, in data set [2], the Michaelis constant (Km) is 6000 µM.

Usually Km stands for the substrate concentration at which the rate is half of its maximum.
